From patent USRE48267E1, “Variants of C-type natriuretic peptide” (priority 2009, dated 2020)
Where two headings read alike, the source gives them in different places.

Columns and labels:
Recombinant human NEP = Recombinant human NEP (Homo sapiens, UniProt P08473); assay: in vitro NEP cleavage assay (disappearance of non-cleaved CNP variant)
In short: (§1)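 Recombinant human NEP (1 ug/mL final) incubated with 100 uM CNP variant in 0.1 M Tris, pH 7, at 37° C for various times, then quenched with EDTA (10 mM final) and heat. Samples reduced and analysed by HPLC and mass spectrometry. Half-life derived from loss of intact variant over time.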

[1] = target: neutral endopeptidase (NEP) (Homo sapiens, UniProt P08473); assay: in vitro; conditions: human, pH 7
In short: as §1

wild type mice = conditions: mouse, in vivo
wild type FVB mice = assay: dose responses of CNP variants in wild type FVB mice; conditions: mouse, in vivo
Procedure: Tail length and body weight were measured over the course of treatment. Animals were sacrificed at the end of the experiment and bone length assessed.

wild-type FVB mice = conditions: mouse, in vivo
Description: Group 1 included vehicle-treated mice injected s.c. daily for 9 weeks followed by 1 week of no treatment. Group 2 included mice treated with Pro-Gly-CNP37 (20 nmol/kg) once daily for 1 week, followed by three doses per week for 8 weeks, followed by 1 week of no treatment. Group 3 contained mice treated with Pro-Gly-CNP37 (20 nmol/kg) once daily in alternate weeks (weeks 1, 3, 5, 7 and 9), with 1 week of no treatment following each week of treatment. Group 4 contained mice treated with Pro-Gly-CNP37 (5 nmol/kg) once daily for 9 weeks followed by 1 week of no treatment. Finally, Group 5 included mice treated with Pro-Gly-CNP37 (5 nmol/kg) once daily for 5 weeks without any week of no treatment. Terminal bleed serum was collected from the mice, and cleaved collagen type II, total alkaline phosphatase and total antibody levels were measured therefrom. Cleaved collagen type II levels were measured as described above. Total alkaline phosphatase levels, predominantly from the liver and bones, were measured with the assistance of a veterinary diagnostic laboratory testing facility (Antech). […] Among the advantages of the ECLA platform, any isotype of antibody (IgG, IgM, etc.) can be detected, and the ECLA assay is species-independent. […] At the end of the 1 hour incubation, the MSD plate was washed and 150 uL of 2× read buffer (MSD Cat. No. R92TC-2) was added to the plate. […]

[2] = IgG assay (immunogenicity) in mice; conditions: wild-type mice, 5 weeks
Procedure: An IgG assay was performed to assess whether an IgG immune response was triggered by 5 week exposure of achondroplastic FGFR3^ach mice to CNP22, CNP37 or PEO24-GANRR-CNP22(K4R) (“CNP27-PEO24”) (SEQ ID NO: 36). IgG is the most predominant immunoglobulin in mouse and human serum and is produced as part of the secondary immune response to an antigen. The IgG response to administration of the CNP peptides was determined as follows. 96-well plates were coated with 100 ng/mL CNP22, CNP37 or PEO24-GANRR-CNP22(K4R) (SEQ ID NO: 36) in BupH PBS buffer (Pierce/Thermo, Cat. No. 28372, Rockford, Ill.). After overnight incubation, plates were blocked with Casein-PBS blocking buffer (Pierce/Thermo, Cat. No. 37528) for two hours at room temperature with shaking at 300 rpm. After washing with wash buffer (1×PBS with 0.05% Tween), diluted serum samples from a terminal bleed (diluted 1:25) were added to the plate. Positive and negative controls were also loaded onto the plate. Positive control was 1:25 diluted serum (pooled from 6 individual FVB mice) with anti-CNP22 antibody added (Bachem rabbit anti-CNP22 IgG, Cat. No. T-4222) at 1:1000 dilution. Negative control was the diluted pooled serum. After two hours of incubation, the plates were washed and secondary antibody diluted in blocking buffer was added to the wells. For the mouse serum samples, anti-mouse IgG Fcγ (peroxidase-conjugated affinipure goat anti-mouse IgG, Fcγ fragment, Cat. No. 115-035-071, Jackson Immunoresearch, West Grove, Pa.) was added at a 1:10,000 dilution. For the positive and negative controls, anti-rabbit IgG-HRP (Santa Cruz Biotechnology, Cat. No. SC-2004, Santa Cruz, Calif.) was added to blocking buffer. After two hours of incubation at room temperature with shaking at 300 rpm, plates were washed with wash buffer. 100 uL of TMB (One-step TMB, Pierce/Thermo, Cat. No. 34022) was added to all wells. Plates were incubated at room temperature for 15 minutes with shaking at 300 rpm. Colorimetric reactions were stopped by the addition of 100 uL of 2 N H2SO4. Plates were read at 450 nm (Spectramax, Molecular Devices, Sunnyvale, Calif.) and data was analyzed using SoftMax Pro software (Molecular Devices).
The immunogenic response of wild-type mice administered G-CNP37, PEO12-GANRR-CNP22(K4R) (SEQ ID NO: 36) or Pro-Gly-CNP37, as measured by an increase in serum IgG level, was also assessed by examining terminal bleed serum samples as described above.

Recombinant human NEP, sequence (P08473 whole entry): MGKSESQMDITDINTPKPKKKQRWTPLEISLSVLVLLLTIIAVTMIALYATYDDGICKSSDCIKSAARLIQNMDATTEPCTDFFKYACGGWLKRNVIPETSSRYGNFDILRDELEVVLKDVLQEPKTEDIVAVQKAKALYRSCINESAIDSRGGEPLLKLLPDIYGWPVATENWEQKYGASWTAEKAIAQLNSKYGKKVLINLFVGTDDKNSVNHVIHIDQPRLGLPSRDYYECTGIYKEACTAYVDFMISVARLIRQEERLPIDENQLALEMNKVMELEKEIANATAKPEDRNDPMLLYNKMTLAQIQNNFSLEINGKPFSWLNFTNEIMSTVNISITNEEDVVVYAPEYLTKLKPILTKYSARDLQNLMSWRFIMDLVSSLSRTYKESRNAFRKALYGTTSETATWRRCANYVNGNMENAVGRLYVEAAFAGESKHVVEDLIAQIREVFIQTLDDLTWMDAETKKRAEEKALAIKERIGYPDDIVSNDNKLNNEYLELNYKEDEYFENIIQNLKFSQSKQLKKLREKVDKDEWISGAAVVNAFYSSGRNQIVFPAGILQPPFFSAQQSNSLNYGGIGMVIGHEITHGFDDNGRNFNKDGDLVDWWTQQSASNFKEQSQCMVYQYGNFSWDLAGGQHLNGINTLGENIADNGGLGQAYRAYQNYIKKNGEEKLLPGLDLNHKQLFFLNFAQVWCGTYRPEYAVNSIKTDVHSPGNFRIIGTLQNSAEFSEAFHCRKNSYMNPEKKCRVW
neutral endopeptidase (NEP), sequence (P08473 whole entry): as above

## CC[C@H](C)[C@@H]1NC(=O)[C@H](CCCNC(=N)N)NC(=O)[C@H](CC(=O)O)NC(=O)[C@H](CC(C)C)NC(=O)[C@H](CCCCN)NC(=O)[C@H](CC(C)C)NC(=O)CNC(=O)[C@H](Cc2ccccc2)NC(=O)[C@@H](NC(=O)CNC(=O)[C@H](CCCCN)NC(=O)[C@H](CO)NC(=O)[C@H](CC(C)C)NC(=O)CNC(=O)[C@H](CCCCN)NC(=O)[C@H](CCCCN)NC(=O)[C@H](CC(N)=O)NC(=O)[C@H](C)NC(=O)CNC(=O)[C@H](CCCCN)NC(=O)[C@H](Cc2ccccc2)NC(=O)[C@H](CCCNC(=N)N)NC(=O)[C@H](Cc2c[nH]cn2)NC(=O)[C@H](C)NC(=O)[C@@H](NC(=O)[C@H](CCC(=O)O)NC(=O)[C@H](CO)NC(=O)[C@H](CCCCN)NC(=O)[C@H](Cc2c[nH]cn2)NC(=O)CN)C(C)C)CSSC[C@@H](C(=O)O)NC(=O)CNC(=O)[C@H](CC(C)C)NC(=O)CNC(=O)[C@H](CO)NC(=O)[C@H](CCSC)NC(=O)[C@H](CO)NC(=O)CNC1=O [HSA-CNP27]
Recombinant human NEP
  resistance to NEP cleavage (in words): most resistant to NEP degradation
[1]
  half-life at 100 uM: > 160 min
Wild type mice
  anti-CNP antibodies (IgG antibody response): elicited and IgG antibody response

## CC[C@H](C)[C@@H]1NC(=O)[C@H](CCCNC(=N)N)NC(=O)[C@H](CC(=O)O)NC(=O)[C@H](CC(C)C)NC(=O)[C@H](CCCCN)NC(=O)[C@H](CC(C)C)NC(=O)CNC(=O)[C@H](Cc2ccccc2)NC(=O)[C@@H](NC(=O)CNC(=O)[C@H](CCCCN)NC(=O)[C@H](CO)NC(=O)[C@H](CC(C)C)NC(=O)CNC(=O)[C@H](CCCCN)NC(=O)[C@H](CCCCN)NC(=O)[C@H](CC(N)=O)NC(=O)[C@H](C)NC(=O)CNC(=O)[C@H](CCCCN)NC(=O)[C@H](Cc2ccc(O)cc2)NC(=O)[C@H](CCCCN)NC(=O)[C@H](CCCNC(=N)N)NC(=O)[C@H](C)NC(=O)[C@H](CC(N)=O)NC(=O)[C@@H]2CCCN2C(=O)[C@H](Cc2c[nH]cn2)NC(=O)[C@H](CCC(=O)O)NC(=O)[C@H](CCC(N)=O)NC(=O)CNC(=O)[C@@H]2CCCN2)CSSC[C@@H](C(=O)O)NC(=O)CNC(=O)[C@H](CC(C)C)NC(=O)CNC(=O)[C@H](CO)NC(=O)[C@H](CCSC)NC(=O)[C@H](CO)NC(=O)CNC1=O [Pro-Gly-CNP37]
Recombinant human NEP; in vitro NEP assay, assay period 160 minutes
  resistance to NEP cleavage (in words): most resistant to NEP degradation
[1]
  half-life at 100 uM: > 160 min
Wild type FVB mice
  organ weight compared with vehicle treated animals: no significant changes
wild-type FVB mice
  antibody response in the total antibody assay: did not show a positive antibody response
[2]
  IgG immune response: None of the wild-type mice
